The values below come from patent publication US8575164B2, “Combination cancer therapy” (OSI Pharmaceuticals, LLC, priority 2005, dated 2013).

The structures appear in SMILES notation. Where two headings read alike, the source gives them in different places.

One test has as its system colorectal cancer. Conditions: cited from earlier work.
The test system of test [1] is H292 human non-small cell lung carcinoma cell line. The note with it: H292 cells in culture; single agent or combination.
Test [2] has the same test system. Conditions: H292 cells in culture; single agent or combination. As for the experimental part:
The basis of the assay is a luminescent quantitation of ATP present in a cell culture plate well. In essence, the greater the number of viable cells in the well, the greater the level of ATP present. […] Results were calculated as a fraction of the DMSO controlled cells.
The source holds these as a separate data set.

Consider `O=c1[nH]cc(F)c(=O)[nH]1` [5-fluorouracil], for which the response rates result in the test on colorectal cancer (single-agent treatment for advanced colorectal cancer) is given as “about 10%”.
Turning to `C#Cc1cccc(Nc2ncnc3cc(OCCOC)c(OCCOC)cc23)c1` [TARCEVA™, [6,7-bis(2-methoxyethoxy)-4-quinazolin-4-yl]-(3-ethynylphenyl)amine], the induction of apoptosis result in test [1] is reported as “induced apoptosis”. Moreover, in test [2], the “inhibition of cell proliferation” value is “inhibited cell proliferation”.
Regarding `O=C1[O][Pt]2([NH][C@@H]3CCCC[C@H]3[NH]2)[O]C1=O` [oxaliplatin], the response rates in the test with colorectal cancer (combined with 5-FU and leucovorin, first-line treatment for colorectal cancer) is recorded as 25-40%.
